# US5498632A, “Esters of acyl carnitines with long-chain aliphatic alcohols and pharmaceutical compositions containing same having antibacterial activity” (Sigma-Tau Industrie Farmaceutiche Riunite S.p.A., priority 1992, dated 1996)
# “And” between values parts separate entries of the source, which are not always exact repeats. Equal entries are not always repeated.
# How the values were obtained:
# Gram+ bacterial strains = test: Mean MIC in broth and resistant strain number, Gram+ strains; assay type: cell-based; conditions: 18 h, versus susceptible strains
# Description: (§1) Evaluation of the Minimal Inhibitory Concentration (MIC) in broth of 15 new substances for Gram+ bacterial strains.
# (§2) The following strains were used: Staphylococcus aureus (4); Streptococcus faecalis (8); Bacillus pumilus (1); Bacillus subtilis (1).
# (§3) MICs were determined by a standard microdilution test, using serial two-fold dilutions of the substances in Mueller-Hinton broth.
# (§4) The inoculum was prepared from an overnight culture in Mueller-Hinton broth matching the 0.5 Mc Farland (turbidity) standard (BRAY W. E., Clinical Laboratory Methods, 5th Ed. C. V. MOSBY, St. Louis, Mo. 1957), and was adjusted to a final concentration of 5.0×10^4 colony-forming units/ml.
# (§5) Equal volumes (0.1 ml) of both bacterial suspensions and substance solutions were distributed in microtiter plates (Falcon, 96 wells, round bottom), and then placed in a humidified incubator (37° C.) for 18 hours.
# (§6) The results, in terms of MIC values, resistant strain number and mean MIC values versus susceptible strains, are illustrated in Tables 1-6.
# [1] = tested on: Streptococcus faecalis (519); test: MIC in broth, Gram+ strains; assay type: cell-based; conditions: Enterococcus faecalis; S. faecalis (519), Mueller-Hinton broth, 37° C., 18 hours; read-out: Minimal Inhibitory Concentration (MIC)
# Description: as §1, §2, §3, §4, §5, §6
# [2] = tested on: Staphylococcus aureus (306 MR); test: MIC in broth, Gram+ strains; assay type: cell-based; conditions: S. aureus (306 MR), Mueller-Hinton broth, 37° C., 18 hours, read-out: Minimal Inhibitory Concentration (MIC)
# Description: as §1, §2, §3, §4, §5, §6
# [3] = tested on: Bacillus pumilus (CN 607); test: MIC in broth, Gram+ strains; assay type: cell-based; conditions: B. pumilus (CN 607), Mueller-Hinton broth, 37° C., 18 hours, read-out: Minimal Inhibitory Concentration (MIC)
# Description: as §1, §2, §3, §4, §5, §6
# [4] = tested on: Staphylococcus aureus (LC1); test: MIC in broth, Gram+ strains; assay type: cell-based; conditions: S. aureus (LC1), Mueller-Hinton broth, 37° C., 18 hours, read-out: Minimal Inhibitory Concentration (MIC)
# Description: as §1, §2, §3, §4, §5, §6
# [5] = tested on: Streptococcus faecalis (516); test: MIC in broth, Gram+ strains; assay type: cell-based; conditions: Enterococcus faecalis; S. faecalis (516), Mueller-Hinton broth, 37° C., 18 hours; read-out: Minimal Inhibitory Concentration (MIC)
# Description: as §1, §2, §3, §4, §5, §6
# [6] = tested on: Streptococcus faecalis (501); test: MIC in broth, Gram+ strains; assay type: cell-based; conditions: Enterococcus faecalis; S. faecalis (501), Mueller-Hinton broth, 37° C., 18 hours; read-out: Minimal Inhibitory Concentration (MIC)
# Description: as §1, §2, §3, §4, §5, §6
# [7] = tested on: Streptococcus faecalis (R 2); test: MIC in broth, Gram+ strains; assay type: cell-based; conditions: Enterococcus faecalis; S. faecalis (R 2), Mueller-Hinton broth, 37° C., 18 hours; read-out: Minimal Inhibitory Concentration (MIC)
# Description: as §1, §2, §3, §4, §5, §6
# [8] = tested on: Streptococcus faecalis (505); test: MIC in broth, Gram+ strains; assay type: cell-based; conditions: Enterococcus faecalis; S. faecalis (505), Mueller-Hinton broth, 37° C., 18 hours; read-out: Minimal Inhibitory Concentration (MIC)
# Description: as §1, §2, §3, §4, §5, §6
# [9] = tested on: Staphylococcus aureus (303); test: MIC in broth, Gram+ strains; assay type: cell-based; conditions: S. aureus (303), Mueller-Hinton broth, 37° C., 18 hours, read-out: Minimal Inhibitory Concentration (MIC)
# Description: as §1, §2, §3, §4, §5, §6
# [10] = tested on: Streptococcus faecalis (509); test: MIC in broth, Gram+ strains; assay type: cell-based; conditions: Enterococcus faecalis; S. faecalis (509), Mueller-Hinton broth, 37° C., 18 hours; read-out: Minimal Inhibitory Concentration (MIC)
# Description: as §1, §2, §3, §4, §5, §6
# [11] = tested on: Streptococcus faecalis (518); test: MIC in broth, Gram+ strains; assay type: cell-based; conditions: Enterococcus faecalis; S. faecalis (518), Mueller-Hinton broth, 37° C., 18 hours; read-out: Minimal Inhibitory Concentration (MIC)
# Description: as §1, §2, §3, §4, §5, §6
# [12] = tested on: Streptococcus faecalis (UM); test: MIC in broth, Gram+ strains; assay type: cell-based; conditions: Enterococcus faecalis; S. faecalis (UM), Mueller-Hinton broth, 37° C., 18 hours; read-out: Minimal Inhibitory Concentration (MIC)
# Description: as §1, §2, §3, §4, §5, §6
# [13] = tested on: Staphylococcus aureus (ATCC 14154); test: MIC in broth, Gram+ strains; assay type: cell-based; conditions: ATCC14154, S. aureus (ATCC 14154), Mueller-Hinton broth, 37° C., 18 hours, read-out: Minimal Inhibitory Concentration (MIC)
# Description: as §1, §2, §3, §4, §5, §6
# [14] = tested on: Bacillus subtilis (ATCC 6051); test: MIC in broth, Gram+ strains; assay type: cell-based; conditions: ATCC6051, B. subtilis (ATCC 6051), Mueller-Hinton broth, 37° C., 18 hours, read-out: Minimal Inhibitory Concentration (MIC)
# Description: as §1, §2, §3, §4, §5, §6
# [15] = tested on: Staphylococcus aureus (S. aureus LC1); test: Protective effect in subcutaneous experimental infection in mice; assay type: in vivo, Staphylococcus aureus in mouse (male CD1); conditions: for Number of bacteria/mouse: 24 hours
# Description: Male CD1 (C. River) mice aged 9 weeks were used (4 animals per group).
# A pathogenic strain of Staphylococcus aureus (S. aureus LC1), isolated from a systemic infection in nude mice, was utilized.
# The bacterial cells (kept under liquid nitrogen) are thawed and seeded in 10 ml of TSB medium and finally incubated for approximately 18 hours at 37° C.
# The culture is then diluted in sterile saline so as to have 2.2×10^7 bacterial cells in a volume of 0.2 ml.
# ST 722 was administered subcutaneously, immediately after bacterial inoculation, at the doses of 5, 20, and 50 mcg in 0.2 ml of sterile saline (single treatment).
# ST 722 was administered subcutaneously at a dose of 50 mcg (in 0.2 ml of sterile saline) immediately after bacterial inoculation and again 5 hours later, i.e. 100 total mcg per mouse (double treatment).
# The "in vivo" experimental model described by Grunberg et al. (GRUNBERG, E., BERGER, J., BESKID, G., CLEELAND, R., PRINCE, N. H. and TITSWORTH, E., 1967. Studies on the "in vitro" and "in vivo" chemotherapeutic properties of the antibiotics myxin. Chemotherapia 12, 272-281) was utilized.
# Briefly, it consisted of a subcutaneous injection into the center of the abdominal wall of the standardized bacterial suspension followed by the s.c. administration of the substance in the same area according to the 2 protocols above.
# After 24 hours, the animals were sacrificed, and the abdominal wall (including the peritoneum) was exicised from each animal.
# The tissue samples were first homogenized by a Potter-Elvehjem tissue grinder in 5 ml of a sterile saline, then a bacterial count was performed by plating the samples onto a S. aureus selective medium (Baird-Parker agar additioned with Ey tellurite enrichment), which allows to easily detect the number of Staphylococcus colonies.
# The number of colonies scored in a series of dilutions for each single sample consents to calculate the number of bacterial cells present in the infected tissue sample as follows: [formula] Where Zi is the number of dilutions performed, Ni is the number of plates prepared for each dilution, and Ci is the total number of bacteria scored in each dilution.
compound,measurement,setting,value
"CCCCCCCCCCCOC(=O)CC(C[N+](C)(C)C)OC(=O)CC(C)C [ST 722, Isovaleryl-L-Carnitine Undecyl Ester Chloride]",MIC,Gram+ bacterial strains,3.12 µg/mL
same,MIC,[1],3.12 µg/mL
same,MIC,[2],6.25 µg/mL
same,MIC,[3],1.56 µg/mL
same,MIC,[4],1.56 µg/mL
same,MIC,[5],1.56 µg/mL
same,MIC,[6],3.12 µg/mL
same,MIC,[7],3.12 µg/mL
same,MIC,[8],3.12 µg/mL
same,MIC,[9],6.25 µg/mL
same,MIC,[10],3.12 µg/mL
same,MIC,[11],3.12 µg/mL
same,MIC,[12],1.56 µg/mL
same,MIC,[13],3.12 µg/mL
same,MIC,[14],3.12 µg/mL
same,Number of bacteria/mouse,"[15]; double treatment s.c., 50 mcg twice (5 hours apart)",3.1×10^5 bacteria/mouse and 5.61 × 10^5 bacteria/mouse
same,reduction of the infective process,"[15]; single treatment s.c., 5 mcg",unable to reduce the infective process
same,Number of bacteria/mouse,"[15]; single treatment s.c., 5 mcg, control 1.11 × 10^8",1.21 × 10^8 bacteria/mouse
same,reduction of bacterial infection extent,"[15]; single treatment s.c., 20 and 50 mcg",dose-dependently reduced in an appreciable manner the bacterial infection extent
same,Number of bacteria/mouse,"[15]; single treatment s.c., 20 mcg, control 1.11 × 10^8",1.21 × 10^8 bacteria/mouse
same,Number of bacteria/mouse,"[15]; single treatment s.c., 50 mcg, control 1.11 × 10^8",5.61 × 10^5 bacteria/mouse
